Reference: publication PMC7580722, “Design of new disubstituted imidazo[1,2-b]pyridazine derivatives as selective Haspin inhibitors. Synthesis, binding mode and anticancer biological evaluation” (Journal of Enzyme Inhibition and Medicinal Chemistry, 2020)

Assays:
[1] = test system: HCT116; experiment: Cell viability, monolayer (2D), MTS assay; format: cell-based; details: Homo sapiens, HCT-116, 48 h
[2] = test system: RnDYRK1A; experiment: DYRK1A kinase assay; format: biochemical, Rn (rat); details: SI = IC50 kinase X/IC50 Haspin
Method: (§1) Values are IC50 expressed in µM and calculated from dose–response curves (each point on the curves was performed in triplicate). Selectivity indexes (SI; in brackets) are calculated as follows: SI = IC50 kinase X/IC50 Haspin. ND: not determined. *IC50 values obtained using the ADP-Glo methodology (see Experimental section, Supplementary Material). […]
The reaction was carried out as described in general procedure A using 4 (0.150 g, 0.58 mmol, 1 equiv.), 2-aminopyrimidine-5-boronic acid (0.122 g, 0.88 mmol, 1.5 equiv.) and Cs2CO3 (0.575 g, 1.75 mmol, 3 equiv.). The […]
The reaction was carried out as described in general procedure A using 4 (0.100 g, 0.39 mmol, 1 equiv.), 1-naphthaleneboronic acid (0.083g, 0.47 mmol, 1.2 equiv.) and Cs2CO3 (0.381 g, 1.17 mmol, 3 equiv.). The crude […]
(§2) Recombinant protein kinases were expressed and purified from E. coli (HsHaspin kinase domain aa470-798, HsCdk5/p25, RnDYRK1A kinase domain aa1-499, HsPIM1, MmCLK1) or baculovirus/Sf9 cells (HsCdk2/Cyclin A, HsCdk9/Cyclin T). […] The wet filter-bound radioactivity was determined in the presence of 20 µl scintillation fluid (GE healthcare) with a TopCount® Scintillation and Luminescence Counter (PerkinElmer). IC50 values were calculated from dose-response curves […]

[3] = test system: HsCdk9/Cyclin T; experiment: CDK9 kinase assay; format: biochemical, human; details: SI = IC50 kinase X/IC50 Haspin
Method: as §1
(§3) The reaction was carried out as described in general procedure A using 4 (0.150 g, 0.58 mmol, 1 equiv.), 2-aminopyrimidine-5-boronic acid (0.122 g, 0.88 mmol, 1.5 equiv.) and Cs2CO3 (0.575 g, 1.75 mmol, 3 equiv.). The crude mixture was purified by flash chromatography on silica gel (EtOAc) to afford 28 (0.115 g, 73 %) as a yellow […]
(§4) The reaction was carried out as described in general procedure A using 4 (0.100 g, 0.39 mmol, 1 equiv.), 1-naphthaleneboronic acid (0.083g, 0.47 mmol, 1.2 equiv.) and Cs2CO3 (0.381 g, 1.17 mmol, 3 equiv.). […]
as §2

[4] = test system: HsCdk5/p25; experiment: CDK5 kinase assay; format: biochemical, human; details: SI = IC50 kinase X/IC50 Haspin
Method: as §1, §3, §4, §2

[5] = test system: U-2 OS spheroids; experiment: Spheroid (3D) viability, CellTiter-Glo; format: cell-based, human; details: 5 µM, Figure 4(B)
[6] = test system: SH-SY5Y; experiment: Cell viability, monolayer (2D), MTS assay; format: cell-based; details: Homo sapiens, 48 h

With `c1cc2[nH]ncc2cc1-c1cnc2ccc(OC[C@@H]3CNCCO3)nn12` [Compound 21] the EC50 [1] was > 10 µM, the “selectivity for DYRK1A vs Haspin” value [2] was 50 fold and the “selectivity for CDK9 vs Haspin” value [3] was 28 fold. For the same molecule, the “selectivity for CDK5 vs Haspin” value [4] was 150 fold, the “U-2 OS spheroid remaining viability” value ([5]; 2 days) was “no effects” and the viability at 5 µM ([5]; Homo sapiens, U2OS, 240 h, 10 days, read-out: U-2 OS spheroid viability) was 69%. For the same molecule, the EC50 [6] was > 10 µM.
